Data on four molecules can be found in paper PMC7661967, “Magnetic Resonance Molecular Imaging of Extradomain B Fibronectin Improves Imaging of Pancreatic Cancer Tumor Xenografts” (Frontiers in Oncology, 2020).

“Also recorded” adds a separate entry of the source. No end group written: not given here.

Series [1] can be described thus: T1 and T2 relaxivity measurement at 3T. Format: physicochemical. Conditions: 0-2 mM MT218 in DPBS buffer. The procedure:
The T1 and T2 values of MT218 and Gd(HP-DO3A) solutions were determined using a 3T MRS 3000 scanner (MR Solutions, Guildford, UK). Solutions of MT218 were prepared at concentrations of 0, 0.25, 0.5, 1, and 2 mM in DPBS buffer (Gibco, Gaithersburg, MD). T1 values were measured using an inversion recovery-fast low angle shot (IR-FLASH) sequence (τ = 10 ms, TE = 4 ms, FA = 8°, echoes/frames = 128, FOV = 40 mm × 40 mm, slice thickness = 2 mm, number of averages = 1, time delay = 4,000 ms, sample period = 200, matrix = 256 × 128). T2 values were obtained using a multi-echo multi-slice (MEMS) sequence (TE = 15 ms, […], echoes = 10, FOV: 40 mm × 40 mm, slice thickness = 1 mm, number of averages = 1, matrix = 256 × 192). The r1 and r2 relaxivities were calculated from the slopes of 1/T1 and 1/T2 vs. Gd concentration plots, respectively.

Series [2] deals with Capan-1 flank tumor xenografts. Briefly: MRMI of Capan-1 flank tumor xenografts (7T). The class given is in vivo, human cells in female nu/nu mice. The following applies: 0.1 mmol/kg. The protocol: (§1) For flank xenograft models, 4 × 10^6 Capan-1 cells suspended in 100 μL of a 6 mg/mL Matrigel (Corning, Corning, NY) solution was injected subcutaneously into the flank of 8-week-old female nu/nu mice. The tumor bearing mice were imaged after tumor volumes exceeded 300 mm^3. For orthotopic intrapancreatic models, the pancreas of 4-week-old female nu/nu mice were surgically exposed via a ~10 mm incision in the left ventral abdomen and the application of gentle pressure to express the spleen and associated pancreatic tissue. 1 × 10^6 BxPC3-GFP-Luc or PANC-1-GFP-Luc cells suspended in 100 μL of a Matrigel solution (6 mg/mL) was injected into the pancreatic tissue using an insulin syringe with a 31G needle. Any leakage of cell suspension was lavaged with DPBS twice to prevent intraabdominal seeding PaCa cells. The peritoneal fascia was closed with absorbable stitches, and the dermis closed with stainless steel wound clips. Prior to imaging, growth of tumor was verified by bioluminescence imaging with intraperitoneal injection of d-luciferin on IVIS Spectrum system (Perkin Elmer, Waltham, MA).
Flank tumor-bearing mice were anesthetized and a tail vein catheter inserted. MR image acquisition was performed on a 7T Biospin (Bruker, Billerica, MA) preclinical small animal scanner with a volume radiofrequency coil. Axial images were obtained using a multi-spin multi-echo (MSME) MRI sequence (500 ms TR, 8.1 ms TE, 90° FA, 4.50 cm × 4.50 cm FOV, 1.50 mm slice thickness, 16 slices, 2 averages, 200 × 200 matrix, 0.0225 × 0.0225 cm/pixel resolution). Contrast agents were injected at a dose of 0.1 mmol/kg (100 μL) via the tail vein catheter, followed by a saline flush. Images of the tumors were acquired before contrast and at various time points after contrast administration. Gd(HP-DO3A) was used as a control.
(§2) Image files were exported and analyzed in Horus software. ROIs were drawn in the tumor, liver, kidney, and muscle. Muscle ROIs were taken from the muscle, with other structures (liver, kidney, tumor) identified after comparison with published images and comparison with anatomical landmarks or bioluminescent imaging. Pancreatic lesions were localized using the liver, kidney, and spleen as anatomical landmarks. […] Size of ROIs drawn for image analysis are summarized in Supplementary Table 1. The contrast-to-noise ratio of the tumor (CNR) was calculated using the following equation, where σnoise is the standard deviation of intensities from an ROI drawn outside of the mouse body:
(§3) CNR=Mean IntensityTumor-Mean IntensityMuscle/σnoise.
(§4) Image subtraction was performed on images adjusted to the same window and level in FIJI open-source software.
(§5) Image contrast was reported as fold enhancement of contrast to noise ratio of post-contrast images over pre-contrast images using Fold Enhancement = CNRpost/CNRpre. Statistical analysis of CNR was performed in Minitab Express (Minitab Inc., State College, PA). One-way ANOVA with Fisher Individual Tests for Differences of Means post-hoc testing was performed to determine statistical significance between >2 means (p < 0.05). Student's T test was used to determine statistical significance between 2 means (p < 0.05).

The subject of series [3] is BxPC3-GFP-Luc intrapancreatic tumor xenografts. Briefly: MRMI of BxPC3-GFP-Luc intrapancreatic tumor xenografts (3T). The class given is in vivo, human cells in female nu/nu mice. The protocol:
as §1
(§6) Mice bearing intrapancreatic tumors were anesthetized and a tail vein catheter was inserted. Image acquisition was performed on a MR Solutions 3T MRS 3000 scanner with a mouse radiofrequency coil. Axial images were obtained using a Fast Spin Echo (FSE) MRI sequence (305 ms TR, 11 ms TE, 90° FA, 4 cm × 4 cm FOV, 1 mm slice thickness, 10 slices, echo train length = 4, echo spacing = 11 ms, 4 averages, 256 × 256 matrix, 0.0156 × […] cm/pixel resolution) with respiratory gating. Images were acquired before contrast and at different time points after contrast injection at a dose of 0.1 mmol/kg (100 μL). For competitive binding experiments, a 5:1 molar ratio of free ZD2 peptide to MT218 was injected in mice bearing intrapancreatic BxPC3 tumor xenografts (n = 3) at a dose of 0.1 mmol MT218/kg (100 μL). Images obtained on the MR Solutions 3T scanner were normalized using the Surscalereader.exe (MR Solutions, Guildford, UK) program supplied.
as §2, §3, §4, §5

In series [4] the test system is PANC-1-GFP-Luc intrapancreatic tumor xenografts. The series is described as follows: MRMI of PANC-1-GFP-Luc intrapancreatic tumor xenografts (3T). The following applies: 0.1 mmol/kg, 10 min post-injection, n = 6. Format: in vivo, human cells in female nu/nu mice. The protocol:
as §1, §6, §2, §3, §4, §5

Series [5] deals with EDB-FN. The following applies: cited from earlier work. The procedure: ZD2 targeted MRI contrast agents have been developed and tested for MRMI of EDB-FN in aggressive breast cancer and prostate cancer models ([15], [16], [20]). The targeted contrast agent ZD2-N3-Gd(HP-DO3A) (MT218) was developed by conjugating ZD2 peptide to a clinical macrocyclic contrast agent Gd(HP-DO3A) ([16], [20]). […] MT218 is a small molecular conjugate of ZD2 peptide to a macrocyclic clinical MRI contrast agent Gd(HP-DO3A). The binding affinity of MT218 to EDB-FN was measured to be 3.2 ± 0.2 μM, which is similar to that of a previously targeted contrast agent ZD2-Gd(HP-DO3A) ([23]). The T1 and T2 relaxivities of MT218 were measured to be 6.07 ± 1.13 s^−1 mM^−1 and 8.20 ± 0.18 s^−1 mM^−1, respectively, at 3 T. T1 and T2 relaxivities of Gd(HP-DO3A) were measured to be 3.20 ± 0.96 s^−1 mM^−1 and 5. ...

The test system of series [6] is EDB-FN. Briefly: ZD2-Cy5.5 staining of human pancreatic tissue. Format: binding. The following applies: 500 nM, 1 h, 37°C, confocal. The protocol:
Tissue sections from PaCa patients (Case Comprehensive Cancer Center, Cleveland, OH) were deparaffinized with xylene, ethanol, and washed with water. Blocking was performed with 10% goat serum (Invitrogen, Carlsbad, CA) in PBS with 0.1% Tween 20 (PBS-T) for 30 min and incubated with 500 nM ZD2-Cy5.5 in PBS-T for 1 h at 37°C. Following three washes with PBS-T, the sections were mounted using Fluoroshield mounting medium (Abcam, Cambridge, UK). Images were acquired on a FV1000 (Olympus, Waltham, MA) confocal microscope using pre-programmed emission and excitation filters for Cy5.5 (excitation: 635 nm; emission: 693 nm) and DAPI (excitation: 405 nm; emission: 461 nm), using a 10 × objective lens. All tissue samples were imaged at the same laser power and sensor gain. Images were generated from single-channel grayscale images using FIJI software.

The subject of series [7] is EDB-FN. The series is described as follows: Fluorescence staining of frozen mouse tumor xenograft and normal tissue sections. The class given is binding, human PaCa xenografts in nu/nu mice. The following applies: for staining: ZD2-Cy5.5 500 nM, room temperature 2.5 h, BC-1 1:400, 4°C overnight. The procedure:
For assessment of binding specificity of ZD2 peptide, flash frozen samples of tumor and normal tissues were collected from the euthanized tumor bearing mice and embedded in optimal cutting temperature media. The embedded samples were then immersed in liquid nitrogen for 5 min and transferred to −80°C for storage before cryosectioning. Tissue sections were blocked for 1 h in PBS containing 0.05% Tween-20 and 10% normal goat serum (Gibco, Gaithersburg, MD) and then stained with BC-1 primary monoclonal antibody (1:400) or ZD2-Cy5.5 (500 nM) at 4°C overnight or room temperature incubation for 2.5 h, respectively, and then washed with PBS-T buffer. Secondary Alexa Fluor 594 anti-rabbit was incubated with the BC-1 treated sections for 1 h at room temperature (1:1,000). For the blocking experiment, the tissue sections were first incubated with an excess of BC1 antibody at 4°C overnight, then washed three times with PBS-T. The sections were then incubated with ZD2-Cy5.5 at room temperature incubation for 2.5 h. The stained sections were washed with PBS-T buffer and images were acquired on an Olympus FV1000 (Waltham, MA) confocal microscope using pre-programmed emission and excitation filters for Cy5.5 (excitation: 635 nm; emission: 693 nm) and DAPI (excitation: 405 nm; emission: 461 nm), using a 10 × objective lens.
Background: Xenograft models place foreign cells or tissue in a host animal.

For series [8], the target named is extradomain B fibronectin in human PaCa tumor xenografts in mice (human (endogenous in BxPC3, Capan-1 and PANC-1 xenografts)).
The target is the same in series [9]. The source holds these as a separate data set.
The target in series [10] is EDB fragment of FN. The series is described as follows: MST; NT-647-labelled EDB fragment at a fixed concentration, MT218 varied; 50 mM PBS w/0.05% Tween-20; 25°C; Monolith NT.115.
Setting [11] is: 0.1 mmol/kg, 10 min post-injection, n = 3.

Consider `CC(O)CN1CCN(CC(=O)[O-])CCN(CC(=O)[O-])CCN(CC(=O)[O-])CC1.[Gd+3]` (stereo not drawn) [Gd(HP-DO3A), reference compound], for which, in series [1] (IR-FLASH), the “T1 relaxivity (r1)” value amounted to 3.20 ± 0.96 s⁻¹ mM⁻¹. The “T2 relaxivity (r2)” value in series [1] (MEMS) worked out at 5.12 ± 0.18 s⁻¹ mM⁻¹. The “contrast enhancement in tumor core” value in [2] (after injection) is given as “did not exhibit significant tumor core enhancement”. The “enhancement in tumor periphery, subtraction images” value in series [2] (early time points (5–15 min post-contrast)) is reported as “modest peripheral contrast enhancement”. Besides, the “intratumoral CNR increase (post/pre)” value in series [2] (for the duration of the experiment, n = 5) is 1.77 fold. Also, the “contrast enhancement throughout tumors, subtraction images” value in [2] (later time points (25–35 min) for MT218, all time points for Gd(HP-DO3A)) is listed as “little to no intratumoral contrast”. Besides, in series [2] (p < 0.01), the “intratumoral CNR increase compared with MT218” value is given as “significantly less than MT218”. The “tumor CNR increase compared with MT218” value in series [3] (0.1 mmol/kg, 10 min, p < 0.01) is “significantly less than that with MT218”. Further, the “tumor CNR increase (post/pre)” value in series [3] (0.1 mmol/kg, 10 min post-injection (maximum for MT218), n = 3) is reported as “approximately 2.5 fold”. Besides, in [3] (setting [11]), the tumor contrast enhancement result is listed as “modest contrast enhancement” and the “tumor enhancement, subtraction images” value is “less intratumoral signal enhancement”. Besides, the tumor contrast enhancement entry in series [3] (0.1 mmol/kg, 20 min post-injection, n = 3) was “reduced to background level”. Also, in series [4], the “intratumoral CNR increase (post/pre)” value was 2.35 fold; the tumor contrast enhancement result is “did not produce significant tumor contrast enhancement”; the “tumor signal enhancement, subtraction images” value is “little change”.

As for TVRTSAD [ZD2], the “effect of free ZD2 peptide on binding of MT218” value in [3] (5:1 molar ratio free ZD2 peptide to MT218, co-injection, n = 3) was “blocked the binding of the MT218 to the tumors; also recorded: inhibited the binding of MT218”. Besides, in [5], the “binding to EDB-FN (specificity)” value is “binds with high specificity to EDB-FN”.

For “ZD2-Cy5.5: peptide-fluorophore conjugate (TVRTSAD; also: Cy5.5 conjugate, end of attachment not given here)”, the “ZD2-Cy5.5 binding / EDB-FN expression” value in [6] (human PaCa tissue) was “high EDB-FN expression and high”; in series [6] (normal pancreatic tissue) it was “little expression and low”; in series [6] (precancerous PanIN tissue), “moderate expression”. Further, the staining entry in [7] (BxPC3, Capan-1 and PANC-1 tumor tissues) is given as “high in all three tumor tissues”; in series [7] (normal pancreatic and muscle tissues), “undetectable; also recorded: No staining”. In addition, the “ZD2-Cy5.5 binding after blocking” value in [7] (flash frozen tumor tissues pre-incubated with excess BC-1 antibody, 4°C overnight, then ZD2-Cy5.5) is listed as “No fluorescent signal; also recorded: blocked”.

In series [8], TVRTSAD (also: conjugated to Gd(HP-DO3A) via N3, end of attachment not given here) [ZD2-N3-Gd(HP-DO3A)] registered a tumor CNR fold increase, T1-weighted MRI, Capan-1 flank xenografts, MT218 0.1 mmol/kg, time course 5-35 min post-injection (maximum at 15 min) of 4.8 fold. For the same molecule, in [9], the tumor CNR fold increase, T1-weighted MRI, BxPC3-GFP-Luc intrapancreatic model, MT218 0.1 mmol/kg without the free ZD2 peptide turned out to be 4.5 fold and the tumor contrast-to-noise ratio (CNR) fold increase, T1-weighted MRI, BxPC3-GFP-Luc intrapancreatic model, MT218 0.1 mmol/kg co-injected with a 5-fold excess of free ZD2 peptide is 2.5 fold. In series [10], the Kd came to 3.2 µM.

As a reminder, the Kd is the free concentration of one partner at which half of the binding sites on the other are occupied at equilibrium, for simple one-to-one binding. Low readings indicate tighter binding, high ones weaker binding.
